Patent publication US8618080B2, “Immunomodulatory compounds and treatment of diseases related to an overproduction of inflammatory cytokines” (OM Pharma, priority 2006, dated 2013)

What was measured:
murine DC cells = test: LPS-induced IL-12, TNF-α and IL-10 production by bone marrow derived dendritic cells; assay type: cell-based, murine (C57BL/7); conditions: murine BM-derived DC; compound 0.01-100 μg/ml 1 h 30 before LPS 1 μg/ml; 20 h; ELISA
Protocol: Femora and tibiae from two male C57BL/7, 6 week-old (Charles River Laboratories France), were removed, stripped of muscles and tendons, and desinfected with 70% ethanol. Both ends of each bone were cut and the marrow was flushed with HBSS (Gibco BRL) using a syringe with a 26-gauge needle. The resulting cell suspension was centrifuged for 5 min. at 500 g and washed in HBSS. The cells were resuspended at 3×10^5 cells/ml in RPMI-1640 (Gibco BRL) supplemented with 2 mM L-glutamin (Sigma), 100 U/ml penicillin (Sigma), 100 μg/ml streptomycin (Sigma), 50 μM β-mercaptoethanol (Sigma), 10% heat-inactivated FCS (Sigma) and 15 ng/ml murine rGM-CSF (R&D).
To generate bone marrow (BM) derived dendritic cells (DC), BM leukocytes were cultured in 100-mm bacteriological petri dishes (Falcon 1029) for 8 days at 37° C. in 5% CO2. On day 0, 10 ml of cell suspension were seeded per dish. On day 3, another 10 ml of freshly prepared medium were added to each plate and on day 6, 9 ml of top medium were carefully removed from each plate and replaced by 10 ml of fresh medium.
Non-adherent cells of the 8-day old BM cell cultures were collected, centrifuged for 5 min. at 500 g, and resuspended at 1.25×10^6 cells/ml in supplemented RPMI containing 10 ng/ml GM-CSF. The cells were then seeded in 24-well tissue culture plates ([…]) and incubated for 1 h 30 at 37° C. in 5% CO2 in the absence or presence of OM-294-DP or OM-197-MP-AC (0.01-100 μg/ml/200 μl/well). LPS (E.coli O26:B6, Sigma), was then added at 1 μg/ml, and the plates were further incubated. After 20 h incubation, the supernatants were collected for analysis of cytokines. IL-12p70, IL-10, and TNF-α concentrations in DC culture supernatants were measured by ELISA using OptEIA matched Ab pairs from BD Pharmingen. Supersignal ELISA Pico chemiluminescent peroxidase substrate (BD Pharmingen) was used for the detection by luminometry (Wallac 1420 multilabel counter Victor-2). The assays were performed according to manufacturer's instructions.
FIG. 1: IL-12 (left panels) and IL-10 (right panels) secretion by murine DC stimulated by LPS (1 μg/ml) alone, or first during 90 minutes with the indicated concentrations (in μg/ml) of OM-197-MP-AC (A) or 294-DP (B), and then by LPS (1 μg/ml) for 20 additional hours. The supernatants were collected from the DC cultures and analyzed by ELISA for the presence of IL-12 and IL-10.
FIG. 2: TNF-α secretion by murine DC stimulated by LPS (1 μg/ml) alone, or first during 90 minutes with the indicated concentrations (in μg/ml) of 294-DP (294), or of OM-197-MP-AC (197), and then by LPS (1 μg/ml) for 20 additional hours. The supernatants were collected from the DC cultures and analyzed by ELISA for the presence of TNF-α.

[1] = test system: Limulus Amoebocyte Lysate; test: Limulus Amoebocyte Lysate chromogenic test (LAL endotoxicity); assay type: biochemical
Protocol: Endotoxicity was determined first for OM-197-MP-AC and for OM-294-DP by the Limulus Amoebocyte Lysate chromogenic test (Chromogenic-LAL of Bio-Whittaker, kit n° 50-65OU).
The enzymatic reaction is carried out at 37° C. and the formation of the chromogen over time is measured at 405 nm. The time necessary to reach 0.2 units of D.O. is recorded and the endotoxic activity calculated in relation to a LPS standard (standard curve). The results are expressed in EU (Endotoxin Unit) in relation to a standardized preparation of E. coli LPS (1 EU corresponds to 0.08 ng equivalent LPS).

human CD4+ T cells = test: Cytokine production and proliferation of naïve CD4+ T cells stimulated with anti-CD3 and anti-CD28; assay type: cell-based; conditions: 0.02-20 μg/ml; for IFN-γ production by CD4+ T cells / IL-13 production by CD4+ T cells: 6 days, ELISA
Protocol: A series of four compounds of the present invention (OM-197-MP-AC, OM-197-MC-HD, OM-294-BA-MP, OM-197-MP-HD) were tested directly as summarized below:
Naïve CD4^+ T cells were magnetically sorted from healthy blood donor (buffy coat). The cells were stimulated in the presence or not of graded doses of triacyl derivatives (0.02; 0.2; 2 and 20 μg/ml) using plate-bound anti-CD3 (5 μg/ml) and soluble anti-CD28 (1 μg/ml). After 6 days, cytokine levels (IFN-γ and IL-13) were tested in the culture supernatants using ELISA.
FIGS. 3A-3D: Effect of increasing doses of the four compounds tested (OM-197-MP-AC, n=5; OM-197-MC-HD, n=5; OM-294-BA-MP, n=7; OM-197-MP-HD, n=3) on IFN-γ and IL-13 production of human CD4^+ T cells following a polyclonal activation. Results are expressed as the median (±p25/p75) of n independent experiments and show the percentage (%) proliferation or cytokine production of treated cells versus untreated cells (considered as 100%, see dotted line). The statistical analysis was performed using a nonparametric unpaired Mann-Whitney t test (2-tailed).

SMILES: CCCCCCCCCCCC(=O)O[C@H](CCCCCCCCCCC)CC(=O)N[C@@H](CCOP(=O)(O)O)C(=O)NCCC[C@H](COP(=O)(O)O)NC(=O)C[C@H](O)CCCCCCCCCCC [OM-294-DP]
- LPS-induced production of IL-10 (murine DC cells): increase
- LPS-induced production of IL-12 (murine DC cells): decrease
- LPS-induced production of TNF-α (murine DC cells): decrease
- Limulus activity in the chromogenic LAL assay [1]: very little or no Limulus activity

SMILES: CCCCCCCCCCCC(=O)O[C@H](CCCCCCCCCCC)CC(=O)N[C@@H](CCCCN)C(=O)NCCC[C@H](COP(=O)(O)O)NC(=O)C[C@H](O)CCCCCCCCCCC [OM-294-BA-MP, (5S,11R)-1-Amino-5-[(R)-3-dodecanoyloxytetradecanoylamino]-6-oxo-7-aza-11-[(R)-3-hydroxytetradecanoylamino]-dodecan-12-ol 12-dihydrogenophosphate]
- T cell proliferation (human CD4+ T cells): unaffected
- IFN-γ production by CD4+ T cells (human CD4+ T cells): unaffected
- IL-13 production by CD4+ T cells (human CD4+ T cells): reduced

SMILES: CCCCCCCCCCCC(=O)O[C@H](CCCCCCCCCCC)CC(=O)N[C@@H](CC(=O)O)C(=O)NCCC[C@H](COC(=O)CCCCC(O)CO)NC(=O)C[C@H](O)CCCCCCCCCCC (stereo partly drawn) [OM-197-MC-HD, N-[(R)-3-dodecanoyloxytetradecanoylamino]-L-aspartic acid, α-N-{(4R)-5-hydroxy-4-[(R)-3-hydroxytetradecanoylamino]pentyl}amide 5-O-(6,7-dihydroxyheptanoate)]
- T cell proliferation (human CD4+ T cells): unaffected
- IFN-γ production by CD4+ T cells (human CD4+ T cells): unaffected
- IL-13 production by CD4+ T cells (human CD4+ T cells): reduced

SMILES: CCCCCCCCCCCC(=O)O[C@H](CCCCCCCCCCC)CC(=O)N[C@@H](CCOP(=O)(O)O)C(=O)NCCC[C@H](COC(=O)CCCCC(O)CO)NC(=O)C[C@H](O)CCCCCCCCCCC (stereo partly drawn) [OM-197-MP-HD, (3S, 9R)-3-[(R)-3-dodecanoyloxytetradecanoylamino]-4-oxo-5-aza-9-[(R)-3-hydroxytetradecanoylamino]-decan-1, 10-diol 1-dihydrogenophosphate 10-(6,7-dihydroxyheptanoate)]
- T cell proliferation (human CD4+ T cells): unaffected
- IFN-γ production by CD4+ T cells (human CD4+ T cells): unaffected
- IL-13 production by CD4+ T cells (human CD4+ T cells): reduced
